{
  "source": "ChEMBL document CHEMBL5120864",
  "about": "“Targeting Enhancer of Zeste Homolog 2 for the Treatment of Hematological Malignancies and Solid Tumors: Candidate Structure-Activity Relationships Insights and Evolution Prospects” (J Med Chem, 2022)",
  "key": {"Pfeiffer": {"tested_on": "Pfeiffer", "assay": "cells", "format": "functional, cell-based", "conditions": "Homo sapiens, 96 h"}, "[1]": {"target": "T1, Histone-lysine N-methyltransferase EZH2 (Homo sapiens, UniProt Q15910, Y641F)", "T1 sequence (Q15910 whole entry Y641F)": "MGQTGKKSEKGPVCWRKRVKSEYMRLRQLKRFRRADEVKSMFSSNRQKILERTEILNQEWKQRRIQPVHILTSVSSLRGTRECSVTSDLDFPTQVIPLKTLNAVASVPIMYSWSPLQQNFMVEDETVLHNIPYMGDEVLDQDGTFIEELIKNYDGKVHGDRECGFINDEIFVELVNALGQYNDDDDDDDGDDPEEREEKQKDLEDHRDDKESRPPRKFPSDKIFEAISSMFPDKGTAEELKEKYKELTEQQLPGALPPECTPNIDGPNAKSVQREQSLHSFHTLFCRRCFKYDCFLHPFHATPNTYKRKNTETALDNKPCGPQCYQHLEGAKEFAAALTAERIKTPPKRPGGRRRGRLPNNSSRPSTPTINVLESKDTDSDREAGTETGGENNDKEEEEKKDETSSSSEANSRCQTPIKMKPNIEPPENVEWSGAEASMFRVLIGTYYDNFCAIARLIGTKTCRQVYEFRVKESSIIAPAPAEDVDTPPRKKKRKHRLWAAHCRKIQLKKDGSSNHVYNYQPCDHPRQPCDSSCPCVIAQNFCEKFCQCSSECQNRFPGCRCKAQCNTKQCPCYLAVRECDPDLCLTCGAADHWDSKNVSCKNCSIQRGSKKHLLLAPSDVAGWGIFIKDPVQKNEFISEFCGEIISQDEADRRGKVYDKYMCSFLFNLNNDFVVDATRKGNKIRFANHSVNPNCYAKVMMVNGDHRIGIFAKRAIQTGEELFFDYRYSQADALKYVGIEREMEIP"}, "[2]": {"target": "T2, Histone-lysine N-methyltransferase EZH1 (Homo sapiens, UniProt Q92800)", "T2 sequence (Q92800 whole entry)": "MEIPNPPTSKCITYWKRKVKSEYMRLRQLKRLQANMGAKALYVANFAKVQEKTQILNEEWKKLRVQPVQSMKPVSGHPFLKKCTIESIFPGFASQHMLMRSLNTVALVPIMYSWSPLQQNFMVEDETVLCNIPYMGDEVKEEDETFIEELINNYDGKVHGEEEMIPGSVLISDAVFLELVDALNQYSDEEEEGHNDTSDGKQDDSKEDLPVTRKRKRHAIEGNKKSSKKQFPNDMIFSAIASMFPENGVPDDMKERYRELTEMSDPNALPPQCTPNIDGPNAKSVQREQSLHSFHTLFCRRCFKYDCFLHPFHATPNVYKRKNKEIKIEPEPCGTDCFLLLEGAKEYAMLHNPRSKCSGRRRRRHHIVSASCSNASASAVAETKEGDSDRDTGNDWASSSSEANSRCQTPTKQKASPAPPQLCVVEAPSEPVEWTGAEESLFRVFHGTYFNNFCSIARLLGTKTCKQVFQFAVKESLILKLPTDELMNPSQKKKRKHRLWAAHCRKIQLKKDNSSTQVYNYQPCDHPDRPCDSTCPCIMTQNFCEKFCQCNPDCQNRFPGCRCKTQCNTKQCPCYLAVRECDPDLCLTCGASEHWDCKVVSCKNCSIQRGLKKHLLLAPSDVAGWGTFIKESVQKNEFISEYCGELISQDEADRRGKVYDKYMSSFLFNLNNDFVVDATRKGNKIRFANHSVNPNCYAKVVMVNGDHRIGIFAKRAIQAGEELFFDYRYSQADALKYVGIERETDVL"}, "[3]": {"target": "T3, Histone-lysine N-methyltransferase EZH2 (Homo sapiens, UniProt Q15910)", "T3 sequence (Q15910 whole entry)": "as the sequence (Q15910 whole entry Y641F) above, with F641Y counted along it"}, "SU-DHL-6": {"tested_on": "SU-DHL-6", "assay": "cells", "format": "functional, cell-based", "conditions": "Homo sapiens, SU-DHL-6, 96 h"}, "PC-3 [4]": {"tested_on": "PC-3", "format": "functional, Homo sapiens", "conditions": "time 24 hrs"}, "HepG2 [5]": {"tested_on": "HepG2", "format": "functional, Homo sapiens", "conditions": "time 24 hrs"}, "MCF7 [6]": {"tested_on": "MCF7", "assay": "cells", "format": "functional, cell-based", "conditions": "Homo sapiens, MCF7, 24 h"}, "HepG2 [7]": {"tested_on": "HepG2", "assay": "cells", "format": "functional, cell-based", "conditions": "Homo sapiens, HepG2, 24 h"}, "PC-3 [8]": {"tested_on": "PC-3", "assay": "cells", "format": "functional, cell-based", "conditions": "Homo sapiens, PC-3, 24 h"}, "MCF7 [9]": {"tested_on": "MCF7", "format": "functional, Homo sapiens", "conditions": "time 24 hrs"}, "KARPAS-422 [10]": {"tested_on": "KARPAS-422", "assay": "animal or person", "format": "functional, Homo sapiens", "conditions": "Mus musculus, route po"}, "[11]": {"target": "T3, Histone-lysine N-methyltransferase EZH2", "remark": "listed apart in the source"}, "[12]": {"target": "T1, Histone-lysine N-methyltransferase EZH2", "remark": "listed apart in the source"}, "[13]": {"target": "T2, Histone-lysine N-methyltransferase EZH1", "remark": "listed apart in the source"}, "HCT-15": {"tested_on": "HCT-15", "assay": "cells", "format": "functional, cell-based", "conditions": "Homo sapiens, HCT-15, 96 h"}, "MDA-MB-231 [14]": {"tested_on": "MDA-MB-231", "assay": "cells", "format": "functional, cell-based", "conditions": "Homo sapiens, MDA-MB-231, 96 h"}, "physchem": {"assay": "physchem", "conditions": "buffer"}, "MCF7 [15]": {"tested_on": "MCF7", "assay": "cells", "format": "functional, cell-based", "conditions": "Homo sapiens, MCF7, 96 h"}, "[16]": {"target": "T2, Histone-lysine N-methyltransferase EZH1", "remark": "listed apart in the source"}, "ZR-75-1": {"tested_on": "ZR-75-1", "assay": "cells", "format": "functional, cell-based", "conditions": "Homo sapiens, ZR-75-1, 96 h"}, "[17]": {"target": "T3, Histone-lysine N-methyltransferase EZH2", "remark": "listed apart in the source"}, "[18]": {"conditions": "mouse, in vivo"}, "[19]": {"target": "T3, Histone-lysine N-methyltransferase EZH2", "remark": "listed apart in the source"}, "PC-3 [20]": {"tested_on": "PC-3", "assay": "cells", "format": "functional, cell-based", "conditions": "Homo sapiens"}, "NCI-H1299": {"tested_on": "NCI-H1299", "assay": "cells", "format": "functional, cell-based", "conditions": "Homo sapiens"}, "[21]": {"target": "T3, Histone-lysine N-methyltransferase EZH2", "remark": "listed apart in the source"}, "A549": {"tested_on": "A549", "assay": "cells", "format": "functional, cell-based", "conditions": "Homo sapiens"}, "in vivo": {"assay": "in vivo", "conditions": "rat"}, "NCI-H1975": {"tested_on": "NCI-H1975", "assay": "cells", "format": "functional, cell-based", "conditions": "Homo sapiens"}, "BT-474": {"tested_on": "BT-474", "assay": "cells", "format": "functional, cell-based", "conditions": "Homo sapiens, BT-474, 72 h"}, "cells": {"assay": "cells", "format": "functional, cell-based", "conditions": "Homo sapiens, WSU-FSCCL, 48 h"}, "MDA-MB-231 [22]": {"tested_on": "MDA-MB-231", "assay": "cells", "format": "functional, cell-based", "conditions": "Homo sapiens, MDA-MB-231, 72 h"}, "KARPAS-422 [23]": {"tested_on": "KARPAS-422", "assay": "cells", "format": "functional", "conditions": "Homo sapiens, time 10-15 day"}},
  "data": [
    {"smiles": "CCN(c1cc(-c2ccc(CN3CCN(C)CC3)cc2)cc(C(=O)NCc2c3c(c(C)[nH]c2=O)CCCC3)c1C)C1CCCCC1", "values": [
      {"measurement": "IC50", "setting": "Pfeiffer", "value": 1430, "unit": "nM"},
      {"measurement": "IC50", "setting": "[1]", "value": 182, "unit": "nM"},
      {"measurement": "IC50", "setting": "[2]", "value": 136, "unit": "nM"},
      {"measurement": "IC50", "setting": "[3]", "value": 9.8, "unit": "nM"},
      {"measurement": "IC50", "setting": "SU-DHL-6", "value": 2010, "unit": "nM"}
    ]},
    {"smiles": "COc1ccc(C2SCCC(=O)N2Nc2nc3ccccc3[nH]2)cc1", "note": "(configuration not stated)", "values": [
      {"measurement": "inhibition (INH)", "setting": "PC-3 [4]", "value": 36.7, "unit": "%"},
      {"measurement": "inhibition (INH)", "setting": "HepG2 [5]", "value": 64, "unit": "%"},
      {"measurement": "IC50", "setting": "MCF7 [6]", "value": 16600, "unit": "nM"},
      {"measurement": "IC50", "setting": "HepG2 [7]", "value": 8950, "unit": "nM"},
      {"measurement": "IC50", "setting": "PC-3 [8]", "value": 27000, "unit": "nM"},
      {"measurement": "inhibition (INH)", "setting": "MCF7 [9]", "value": 50.8, "unit": "%"}
    ]},
    {"smiles": "COC1CN([C@H]2CC[C@H]([C@@H](C)c3scc(C(=O)NCc4c(C)cc(C)[nH]c4=O)c3C)CC2)C1", "values": [
      {"measurement": "inhibition in vivo at 50 mg/kg", "setting": "KARPAS-422 [10]", "value": 53, "unit": "%"},
      {"measurement": "IC50", "setting": "[11]", "value": 1.43, "unit": "nM"},
      {"measurement": "IC50", "setting": "[12]", "value": 0.93, "unit": "nM"}
    ]},
    {"smiles": "CCC(CC)n1ccc2c(C(=O)NCc3c(C)cc(C)[nH]c3=O)cc(C#N)cc21", "values": [
      {"measurement": "IC50", "setting": "[13]", "value": 13, "unit": "nM"}
    ]},
    {"smiles": "COc1cccc2nc(N3CCCN(C)CC3)cc(NC3CCN(C)CC3)c12", "values": [
      {"measurement": "IC50", "setting": "HCT-15", "value": 7600, "unit": "nM"},
      {"measurement": "IC50", "setting": "MDA-MB-231 [14]", "value": 2450, "unit": "nM"}
    ]},
    {"smiles": "CCN(c1cc(-c2ccccc2)cc(C(=O)NCc2c3c(c(C)[nH]c2=O)CCCC3)c1C)C1CCOCC1", "values": [
      {"measurement": "solubility", "setting": "physchem", "value": 185, "unit": "µg/mL"}
    ]},
    {"smiles": "CCN(c1cc(-c2ccc(N3CCN(C)CC3)cc2)cc(C(=O)NCc2c3c(c(C)[nH]c2=O)CCCC3)c1C)C1CCOCC1", "values": [
      {"measurement": "IC50", "setting": "[1]", "value": 15, "unit": "nM"},
      {"measurement": "IC50", "setting": "MCF7 [15]", "value": 990, "unit": "nM"},
      {"measurement": "IC50", "setting": "[16]", "value": 81, "unit": "nM"},
      {"measurement": "IC50", "setting": "ZR-75-1", "value": 89, "unit": "nM"}
    ]},
    {"smiles": "COc1cc(C)[nH]c(=O)c1CNC(=O)c1c(C)n(C(C)C2CCN(C)C(C(F)(F)F)C2)c2ccccc12", "note": "(configuration not stated)", "values": [
      {"measurement": "IC50", "setting": "[17]", "value": "< 400000", "unit": "nM"},
      {"measurement": "CL", "setting": "[18]", "value": 55, "unit": "µL/min/mg"},
      {"measurement": "IC50", "setting": "[11]", "value": "< 100", "unit": "nM"},
      {"measurement": "IC50", "setting": "[12]", "value": "< 100", "unit": "nM"}
    ]},
    {"smiles": "C=CC(=O)Nc1cc(-c2ccc(N3CCNCC3)nc2)cc(C(=O)NCc2c(CC)cc(C)[nH]c2=O)c1C", "values": [
      {"measurement": "IC50", "setting": "[19]", "value": 47, "unit": "nM"}
    ]},
    {"smiles": "Nc1nccc2c1ncn2[C@@H]1C=C(CO)[C@@H](O)[C@H]1O", "values": [
      {"measurement": "IC50", "setting": "PC-3 [20]", "value": 190, "unit": "nM"},
      {"measurement": "IC50", "setting": "NCI-H1299", "value": 210, "unit": "nM"},
      {"measurement": "IC50", "setting": "[21]", "value": 80, "unit": "nM"},
      {"measurement": "IC50", "setting": "A549", "value": 240, "unit": "nM"},
      {"measurement": "half-life", "setting": "in vivo", "value": 1.1, "unit": "h"},
      {"measurement": "IC50", "setting": "NCI-H1975", "value": 80, "unit": "nM"}
    ]},
    {"smiles": "COc1cc2nc(N3CCN(C)CC3)nc(NC3CCN(Cc4ccccc4)CC3)c2cc1OC", "values": [
      {"measurement": "IC50", "setting": "BT-474", "value": 2100, "unit": "nM"},
      {"measurement": "IC50", "setting": "cells", "value": 3400, "unit": "nM"},
      {"measurement": "IC50", "setting": "MDA-MB-231 [22]", "value": 4300, "unit": "nM"}
    ]},
    {"smiles": "CCN1CCN(c2ccc(-c3cc(C(=O)NCc4c(C)cc(C)[nH]c4=O)c(C)c4c3O[C@](C)(CN3CCOCC3)O4)cn2)CC1", "values": [
      {"measurement": "GI50", "setting": "KARPAS-422 [23]", "value": 210, "unit": "nM"}
    ]}
  ]
}
